Legend:
[1] = test system: acetic acid-induced writhing; experiment: inhibition of acetic acid-induced writhing counts in mice (analgesic effect); type: in vivo; details: Mus musculus, read-out: ED50 (50% Effective dose)
[2] = acute toxicity, LD50 in mice by subcutaneous injection (Up and Down method); type: in vivo; details: mouse, sc, drugs dissolved in physiological saline
Description: **) LD50 in mice by subcutaneous injection of the drugs (calculated
by the Up and Down method). Drugs are dissolved in physiological saline

C[C@@H]1CN(CCCc2ccccc2)[C@@H](C)CN1C(=O)c1ccco1.Cl (relative stereo) [Example 2, trans-1-(3-Phenylpropyl)-2,5-dimethyl-4-(2-furoyl)-piperazine hydrochloride] gave an ED50 [1] of 1.52 mg/kg and an LD50 [2] greater than 500 mg/kg.

Cc1ccccc1CCCN1C[C@@H](C)N(C(=O)c2ccco2)C[C@@H]1C.Cl (relative stereo) [Example 15, trans-1-[3-(o-Methylphenyl)propyl]-2,5-dimethyl-4-(2-furoyl)piperazine hydrochloride] gave an ED50 [1] of 1 mg/kg and an LD50 [2] greater than 750 mg/kg.

With Cc1cccc(CCCN2C[C@@H](C)N(C(=O)c3ccco3)C[C@@H]2C)c1.Cl (relative stereo) [Example 16, trans-1-[3-(m-Methylphenyl)propyl]-2,5-dimethyl-4-(2-furoyl)piperazine hydrochloride] the ED50 [1] was 1.05 mg/kg and the LD50 [2] was greater than 500 mg/kg.

In the case of Cl.O=C(c1ccco1)N1CCN(CCCc2ccccc2)CC1 [Example 1, 1-(3-Phenylpropyl)-4-(2-furoyl)piperazine hydrochloride], the ED50 [1] is reported as 7.8 mg/kg and the LD50 [2] is reported as 400 mg/kg.

Work on CC1CN(C(=O)c2ccco2)CCN1CCCc1ccccc1 (stereo not drawn) [Example 3, 1-(3-Phenylpropyl)-2-methyl-4-(2-furoyl)piperazine] yielded an ED50 [1] of 5.17 mg/kg and an LD50 [2] of 300 mg/kg.

Compound CC1CN(CCCc2ccccc2)CCN1C(=O)c1ccco1.Cl (stereo not drawn) [Example 4, 1-(3-Phenylpropyl)-3-methyl-4-(2-furoyl)piperazine hydrochloride] has an ED50 [1] of 3.42 mg/kg and an LD50 [2] greater than 750 mg/kg.

Compound CC1(C)CN(CCCc2ccccc2)CCN1C(=O)c1ccco1.Cl [Example 5, 1-(3-Phenylpropyl)-3,3-dimethyl-4-(2-furoyl)piperazine hydrochloride] has an ED50 [1] of 2.2 mg/kg and an LD50 [2] greater than 500 mg/kg.

In the case of Cc1ccccc1CCCN1CCN(C(=O)c2ccco2)CC1.Cl [Example 7, 1-[3-(o-Methylphenyl)propyl]-4-(2-furoyl)piperazine hydrochloride], the ED50 [1] is reported as 3 mg/kg and the LD50 [2] is reported as 400 mg/kg.

With Cc1cccc(CCCN2CCN(C(=O)c3ccco3)CC2)c1.Cl [Example 8, 1-[3-(m-Methylphenyl)propyl]-4-(2-furoyl)piperazine hydrochloride] the ED50 [1] was 3.35 mg/kg and the LD50 [2] was 350 mg/kg.

Compound CCOc1ccc(CCCN2CCN(C(=O)c3ccco3)CC2)cc1.Cl [Example 9, 1-[3-(p-Ethoxyphenyl)propyl]-4-(2-furoyl)piperazine hydrochloride] has an ED50 [1] of 8.85 mg/kg and an LD50 [2] of 400 mg/kg.

For Cc1occc1C(=O)N1CCN(CCCc2ccccc2)CC1.Cl [Example 11, 1-(3-Phenylpropyl)-4-(2-methyl-3-furoyl)piperazine hydrochloride], the ED50 [1] was 1.81 mg/kg and the LD50 [2] was 170 mg/kg.

For Cc1cc(C(=O)N2CCN(CCCc3ccccc3)CC2)co1.Cl [Example 12, 1-(3-Phenylpropyl)-4-(5-methyl-3-furoyl)piperazine hydrochloride], the ED50 [1] was 3.93 mg/kg and the LD50 [2] was 200 mg/kg.

Source: US3962249A, “1-(3-Phenylpropyl)-4-furoylpiperazine derivatives” (Kyorin Seiyaku Kabushiki Kaisha, priority 1974, dated 1976)
